# Experimental data as given in patent US10420815B2, “Combinational therapy for synergistic inhibition of gram-positive and gram-negative bacteria” (priority 2015, dated 2019).
# Entries after “also recorded” stand apart in the source; their conditions may differ. Read-outs that look alike come from different tables or passages of the source.
# Legend:
# MRSA USA300 (BAA-1680) [1] = assay: microbe, parasite or virus in culture; assay type: cell-based, Staphylococcus aureus; parameters: MBC of bacitracin in combination with OG / fold reduction in bacitracin MBC: dose or concentration left out as unconfirmed; details: for MBC of bacitracin in combination with alkyl gallate / fold decrease in bacitracin MBC: 5 μg ml^−1 alkyl gallate; for fold decrease in bacitracin MBC: versus bacitracin MBC 200 U; for bactericidal activity in combination with bacitracin: FIG. 2; for MBC / MIC: agent alone
# Source text: (§1) MRSA (ATCC 33593), MSSA (ATCC 29213), and MRSA USA300 (BAA-1680) strains were purchased from the American Type Culture Collection (ATCC; Manassas, Va.). Eight clinical isolates of MRSA were obtained from the Culture Collection of Antimicrobial Resistant Microbes, Korea National Research Resource Center (KNRRC). Salmonella enterica Typhimurium LT2 was purchased from ATCC, and Escherichia coli O157:H7 is a kind gift from Dr. Sangryeol Ryu (Seoul National University, South Korea). All S. aureus strains were maintained in Trypticase Soy (TS) medium, and E. coli O157:H7 and Salmonella were routinely grown aerobically on Luria-Bertani (LB) media at 37° C. For measuring growth kinetics, an overnight culture of MRSA in Mueller-Hinton (MH) broth was diluted 100-fold in fresh MH broth and cultured until early exponential phase. The culture (200 μl) was transferred to each well of a sterile 96-well plate and incubated at 37° C. with bacitracin alone, alkyl gallate alone, and combination of bacitracin/alkyl gallates at various concentrations. The optical density at 600 nm (OD600) was measured every hour with FLUOstar® Omega (BMG Labtech, Germany).
# (§2) Broth micro dilution assays were performed to determine the minimum inhibitory concentrations (MIC) accordance to the M7-A7 protocol of the Clinical and Laboratory Standards Institute (CLSI) guidelines^28. The susceptibility test was carried out with an initial bacterial inoculum of 1.5×10^5 CFU ml^−1. Alkyl gallates and bacitracin were serially diluted in a polystyrene 96 well plate and the plate was incubated at 37° C. for 24 h. Minimum bactericidal concentration (MBC) was determined by spotting 10 μl of cultures from MIC tests onto MH agar and incubated aerobically at 37° C.
# MRSA USA300 (BAA-1680) [2] = assay: Growth kinetics (OD600) with bacitracin, alkyl gallates and combinations; assay type: cell-based, Staphylococcus aureus; details: bacitracin 0.001 U to 100 U
# Source text: as §1
# MRSA USA300 = assay: Biofilm assay (crystal violet); assay type: cell-based, Staphylococcus aureus; details: LG at different concentrations plus 10^−4 U bacitracin; 18 h; listed as LG
# Experimental: Biofilm assays were performed as described previously^30. Briefly, overnight culture of MRSA was diluted 1:100 in TS broth and was grown in a 96-well microtiter plate in the presence or absence (a negative control) of combinations of bacitracin and lauryl gallate at different concentrations. After aerobic incubation at 37° C. for 18 h, biofilms were washed and stained with crystal violet. After washing unbound crystal violet, the absorbance at 630 nm was measured with FLUOstar Omega® (BMG Labtech).
# MRSA 3095 = assay: microbe, parasite or virus in culture; assay type: cell-based, Staphylococcus aureus; details: Staphylococcus aureus
# Source text: as §1, §2
# MRSA 3795 = assay: microbe, parasite or virus in culture; assay type: cell-based, Staphylococcus aureus; details: Staphylococcus aureus
# Source text: as §1, §2
# MRSA 3799 = assay: microbe, parasite or virus in culture; assay type: cell-based, Staphylococcus aureus; details: for MIC: Staphylococcus aureus
# Source text: as §1, §2
# MRSA 3823 = assay: microbe, parasite or virus in culture; assay type: cell-based, Staphylococcus aureus; details: Staphylococcus aureus
# Source text: as §1, §2
# MRSA 3865 = assay: microbe, parasite or virus in culture; assay type: cell-based, Staphylococcus aureus; details: Staphylococcus aureus
# Source text: as §1, §2
# MRSA 3876 = assay: microbe, parasite or virus in culture; assay type: cell-based, Staphylococcus aureus; details: Staphylococcus aureus
# Source text: as §1, §2
# MRSA 3903 = assay: microbe, parasite or virus in culture; assay type: cell-based, Staphylococcus aureus; details: for MIC: Staphylococcus aureus
# Source text: as §1, §2
# MRSA 3A585 = assay: microbe, parasite or virus in culture; assay type: cell-based, Staphylococcus aureus; details: Staphylococcus aureus
# Source text: as §1, §2
# MRSA (ATCC 33593) = assay: microbe, parasite or virus in culture; assay type: cell-based, Staphylococcus aureus; details: MRSA; for MIC: antioxidant alone
# Source text: as §1, §2
# (§3) MICs were determined with MRSA and methicillin-sensitive S. aureus (MSSA) using a broth dilution method as described above.
# (§4) MRSA and MSSA were cultured overnight with antioxidants (0.5 μg/ml) and bacitracin at various concentrations and 10 μL of the culture was spotted on MH agar plates and incubated aerobically at 37° C. to observe the bacterial viability. The results in FIGS. 9A, 9B, 9C and 9D (photographs of plates) show the Minimal Bactericidal Concentrations (MBCs) for indicated antioxidants. Bacitracin killed MRSA and MSSA at concentrations greater than or equal to 2 μg/mi.
# MSSA (ATCC 29213) = assay: MIC (broth dilution) and MBC (spotting) of phenolic antioxidants and bacitracin; assay type: cell-based, Staphylococcus aureus; details: for MIC: antioxidant alone
# Source text: as §1, §2, §3, §4
# [3] = test system: MRSA (normal MRSA strain, not USA300); assay: MRSA growth (optical density) with bacitracin and phenolic antioxidants; assay type: cell-based, Staphylococcus aureus
# Source text: as §1
# MRSA were grown with bacitracin (0.002 μg/mL) with antioxidant (as shown) at 0.5 μg/mL.
# FIG. 7A is growth with no added bacitracin or lauryl gallate.
# The optical density of MRSA was measured after 18 h culture with bacitracin (0.002 μg/ml) and antioxidants (as indicated at 0.5 μg/ml). Also measured were controls with no additions, with bacitracin alone and with antioxidant alone. FIGS. 8A, 8B, 8C and 8D are graphs illustrating the results.
# Escherichia coli O157:H7 = assay: microbe, parasite or virus in culture; assay type: cell-based; details: for MBC / MIC: Escherichia coli
# Source text: as §1, §2
# (§5) MIC and MBC were measured as described above. MIC and MBC data are shown in Table 5 for both the Salmonella and the E. coli strain tested. The tested strains were highly resistant to bacitracin.
# [4] = test system: Salmonella enterica Typhimurium LT2; assay: MIC and MBC, alone and bacitracin/alkyl gallate combinations; assay type: cell-based; details: for MBC / MIC: Salmonella enterica, S. Typhimurium, agent alone
# Source text: as §1, §2, §5
# USA300 = assay: Bacterial membrane permeability (propidium iodide fluorescence); assay type: cell-based, Staphylococcus aureus
# Experimental: Membrane permeability was determined by measuring fluorescence after exposure of USA300 to propidium iodide as described previously^29. Briefly, USA300 was grown in MH broth to the exponential phase and then diluted to OD600≈0.25. Propidium iodide was mixed with bacteria to a final concentration of 10 μM. […] Fluorescence was monitored at excitation and emission wavelengths of 585 nm and 620 nm, respectively, for 1 h using FLUOstar Omega® (BMG Labtech, Germany). The membrane permeability was calculated by subtracting fluorescence intensity of controls without treatment with phenolic compounds from that of treated samples. EDTA (1 mM) was used as a positive control.
# [5] = test system: human clinical isolates of MRSA with multidrug- and hyper-resistance; assay: Bactericidal activity of OG plus bacitracin against clinical isolates; assay type: cell-based, Staphylococcus aureus
# Source text: as §1, with “The culture (200 μl) was transferred to each well of a sterile 96-well plate and incubated at 37° C. with bacitracin alone, alkyl gallate alone, and combination of bacitracin/alkyl gallates at various concentrations.” left out
# Broth micro dilution assays were performed to determine the minimum inhibitory concentrations (MIC) accordance to the M7-A7 protocol of the Clinical and Laboratory Standards Institute (CLSI) guidelines^28. […] Minimum bactericidal concentration (MBC) was determined by spotting 10 μl of cultures from MIC tests onto MH agar and incubated aerobically at 37° C. […]
# [6] = antioxidant 0.5 μg/ml, compared to bacitracin alone
# [7] = Staphylococcus aureus, read-out: MIC
smiles,measurement,setting,value
"CCCCCCCCCCCCOC(=O)c1cc(O)c(O)c(O)c1 [Lauryl gallate, lauryl gallate]",MBC of bacitracin in combination with alkyl gallate,MRSA USA300 (BAA-1680) [1],10^−1 U
same,fold decrease in bacitracin MBC,MRSA USA300 (BAA-1680) [1],"2,000 fold"
same,bactericidal activity in combination with bacitracin,MRSA USA300 (BAA-1680) [1],synergistic antimicrobial activity
same,MBC,MRSA USA300 (BAA-1680) [1],64 µg/mL
same,MIC,MRSA USA300 (BAA-1680) [1],32 µg/mL
same,growth inhibition by bacitracin in combination with alkyl gallate,MRSA USA300 (BAA-1680) [2],significant growth inhibition
same,biofilm formation,MRSA USA300,substantial reduction in the level of biofilm formation; also recorded: significant anti-biofilm effects
same,MIC,"MRSA 3095; MRSA 3095 (human/skin), read-out: MIC",64 µg/mL
same,MIC,"MRSA 3795; MRSA 3795 (human/nose), read-out: MIC",64 µg/mL
same,MIC,"MRSA 3799; MRSA 3799 (human/nose), read-out: MIC",32 µg/mL
same,MIC,"MRSA 3823; MRSA 3823 (human/nose), read-out: MIC",64 µg/mL
same,MIC,"MRSA 3865; MRSA 3865 (human/skin), read-out: MIC",64 µg/mL
same,MIC,"MRSA 3876; MRSA 3876 (human/skin), read-out: MIC",64 µg/mL
same,MIC,"MRSA 3903; MRSA 3903 (human/skin), read-out: MIC",64 µg/mL
same,MIC,"MRSA 3A585; MRSA 3A585 (human/blood), read-out: MIC",64 µg/mL
same,fold decrease of bacitracin MBC by antioxidant,MRSA (ATCC 33593); [6],512 fold
same,MIC,MRSA (ATCC 33593),128 µg/mL
same,MIC,MRSA (ATCC 33593); [7],64 µg/mL
same,MIC,MSSA (ATCC 29213); [7],64 µg/mL
same,fold decrease of bacitracin MBC by antioxidant,MSSA (ATCC 29213); [6],"> 1,000 fold"
same,MIC,MSSA (ATCC 29213),128 µg/mL
same,growth of MRSA with bacitracin plus antioxidant,"[3]; bacitracin 0.002 μg/mL, antioxidant 0.5 μg/mL, FIG. 6",significantly inhibited the growth of MRSA
same,optical density of MRSA after 18 h culture: inhibition of growth in combination with bacitracin,"[3]; bacitracin 0.002 μg/ml (ca. 0.0002 U), antioxidant 0.5 μg/ml, 18 h, FIG. 8",significantly inhibited MRSA
same,concentration of lauryl gallate alone that inhibited MRSA growth,"[3]; lauryl gallate 0.5 μg/mL to 256 μg/mL, FIG. 7C",256 µg/mL
same,MRSA growth inhibition by lauryl gallate in combination with bacitracin,"[3]; lauryl gallate 0.5 μg/ml, bacitracin 0.0019 μg/mL to 1 μg/mL, FIG. 7D",synergistically inhibited MRSA growth
same,synergistic effect with bacitracin,"Escherichia coli O157:H7; E. coli O157:H7, FIG. 10",more moderate synergistic effects
same,MBC,Escherichia coli O157:H7,1020 µg/mL
same,MIC,Escherichia coli O157:H7,512 µg/mL
same,MBC,[4],> 1020 µg/mL
same,MIC,[4],> 1020 µg/mL
same,synergistic effect with bacitracin,"[4]; Salmonella, FIG. 10",more moderate synergistic effects
"CCCCCCCCOC(=O)c1cc(O)c(O)c(O)c1 [Octyl gallate (OG), octyl gallate]",MBC of bacitracin in combination with alkyl gallate,MRSA USA300 (BAA-1680) [1],10^−3 U
same,fold decrease in bacitracin MBC,MRSA USA300 (BAA-1680) [1],"200,000 fold"
same,bactericidal activity in combination with bacitracin,MRSA USA300 (BAA-1680) [1],Most significant bactericidal activity
same,MBC of bacitracin in combination with OG,MRSA USA300 (BAA-1680) [1]; OG,10^−4 U
same,fold reduction in bacitracin MBC,MRSA USA300 (BAA-1680) [1]; OG,"2,000,000 fold"
same,MBC,MRSA USA300 (BAA-1680) [1],64 µg/mL
same,MIC,MRSA USA300 (BAA-1680) [1],32 µg/mL
same,growth inhibition by bacitracin in combination with alkyl gallate,MRSA USA300 (BAA-1680) [2],completely inhibited the growth of USA300
same,"membrane permeability, OG in the presence of bacitracin",USA300; OG plus bacitracin,more significantly increased membrane permeability than OG treatment without bacitracin; also recorded: significantly altered membrane permeability
same,membrane permeability,"USA300; agent alone, sub-MIC levels, EDTA 1 mM",permeabilized the membrane in a concentration-dependent manner; also recorded: increased the membrane permeability
same,MIC,MRSA 3095; MRSA,16 µg/mL
same,MIC,MRSA 3795; MRSA,16 µg/mL
same,MBC of bacitracin with OG,"MRSA 3799; MRSA 3799, 5 μg ml^−1 OG",10^−2 U
same,MIC,MRSA 3799; MRSA,16 µg/mL
same,MIC,MRSA 3823; MRSA,16 µg/mL
same,MIC,MRSA 3865; MRSA,16 µg/mL
same,MIC,MRSA 3876; MRSA,16 µg/mL
same,MBC of bacitracin with OG,"MRSA 3903; MRSA 3903, 5 μg ml^−1 OG",10^−2 U
same,MIC,MRSA 3903; MRSA,16 µg/mL
same,MIC,MRSA 3A585; MRSA,16 µg/mL
same,killing of clinical MRSA isolates by OG plus bacitracin,[5]; FIG. 3,successfully killed all the tested clinical MRSA isolates; also recorded: effectively killed clinical MRSA isolates
same,bacitracin level at which most strains were killed with OG,"[5]; most clinical MRSA strains, 5 μg ml^−1 OG",10^−3 U
same,fold change in bacitracin MBC,"Escherichia coli O157:H7; E. coli O157:H7, 5 μg ml^−1 OG","> 1,000,000 fold"
same,MBC,Escherichia coli O157:H7,512 µg/mL
same,MIC,Escherichia coli O157:H7,256 µg/mL
same,MBC,[4],512 µg/mL
same,MIC,[4],256 µg/mL
same,fold change in bacitracin MBC,"[4]; Salmonella, 5 μg ml^−1 OG","> 1,000,000 fold"
